# Like-named read-outs stand apart in the source and are kept apart here.
# Key:
# 6xHis-CBU0823 = target: T1, 6xHis-CBU0823 (Coxiella burnetii, UniProt Q83DB5); settings: substrate inhibition constant (KSi), 1 mM MnCl2, PBS pH 7.4
# T1 construct: gene sfcA
# 6xHis-oMLE [1] = target: T2, 6xHis-oMLE (Oenococcus oeni, UniProt Q48796); type: biochemical
# T2 construct: gene mleA
# 6xHis-oMLE [2] = target: T2, 6xHis-oMLE; type: biochemical; remark: listed apart in the source
# GST-CBU1241 = target: T3, GST-CBU1241 (Coxiella burnetii, UniProt Q83C87); settings: substrate inhibition constant (KSi); 0.5 mM NADH, PBS pH 7.4
# T3 construct: gene mdh
# T3 sequence (Q83C87 whole entry, looked up): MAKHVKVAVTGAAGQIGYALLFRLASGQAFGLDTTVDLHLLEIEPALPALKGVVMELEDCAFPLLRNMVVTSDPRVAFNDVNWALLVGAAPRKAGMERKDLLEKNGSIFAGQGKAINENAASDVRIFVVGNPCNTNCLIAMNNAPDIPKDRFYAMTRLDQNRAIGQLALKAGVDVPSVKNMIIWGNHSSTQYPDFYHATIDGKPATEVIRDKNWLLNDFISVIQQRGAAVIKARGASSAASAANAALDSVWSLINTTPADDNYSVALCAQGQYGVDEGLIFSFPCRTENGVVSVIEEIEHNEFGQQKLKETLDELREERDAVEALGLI
# T1 sequence (Q83DB5 1-565 limits assumed): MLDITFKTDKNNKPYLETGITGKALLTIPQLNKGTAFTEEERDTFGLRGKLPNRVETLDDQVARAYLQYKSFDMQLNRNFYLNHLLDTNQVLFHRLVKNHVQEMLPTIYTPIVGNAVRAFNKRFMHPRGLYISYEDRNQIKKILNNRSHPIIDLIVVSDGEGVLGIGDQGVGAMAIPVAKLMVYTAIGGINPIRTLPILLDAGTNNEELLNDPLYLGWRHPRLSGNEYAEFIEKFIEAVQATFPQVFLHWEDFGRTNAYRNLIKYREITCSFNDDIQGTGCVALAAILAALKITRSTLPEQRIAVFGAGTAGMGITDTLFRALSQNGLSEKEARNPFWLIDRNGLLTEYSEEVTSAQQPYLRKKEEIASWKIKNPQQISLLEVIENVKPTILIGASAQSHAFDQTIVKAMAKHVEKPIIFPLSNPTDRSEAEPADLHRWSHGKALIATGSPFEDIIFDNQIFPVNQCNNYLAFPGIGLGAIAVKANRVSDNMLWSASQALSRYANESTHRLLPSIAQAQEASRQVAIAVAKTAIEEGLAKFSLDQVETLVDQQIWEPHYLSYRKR
# T2 sequence (Q48796 whole entry): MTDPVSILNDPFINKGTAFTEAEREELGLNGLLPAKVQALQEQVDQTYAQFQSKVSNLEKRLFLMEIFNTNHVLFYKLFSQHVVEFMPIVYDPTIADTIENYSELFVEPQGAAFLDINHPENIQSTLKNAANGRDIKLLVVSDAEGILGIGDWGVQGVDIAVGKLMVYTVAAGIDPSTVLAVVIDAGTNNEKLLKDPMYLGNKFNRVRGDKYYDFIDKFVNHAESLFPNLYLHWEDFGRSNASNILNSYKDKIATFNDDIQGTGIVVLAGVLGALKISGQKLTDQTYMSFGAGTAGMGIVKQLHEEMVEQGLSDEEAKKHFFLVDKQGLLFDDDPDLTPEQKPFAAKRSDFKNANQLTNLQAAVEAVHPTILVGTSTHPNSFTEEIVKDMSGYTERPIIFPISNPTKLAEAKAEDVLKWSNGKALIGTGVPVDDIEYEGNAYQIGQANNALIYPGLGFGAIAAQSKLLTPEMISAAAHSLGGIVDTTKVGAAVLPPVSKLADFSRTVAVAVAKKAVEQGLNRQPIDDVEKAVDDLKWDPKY
compound,measurement,setting,value
NC(=O)c1ccc[n+]([C@@H]2O[C@H](COP(=O)(O)OP(=O)(O)OC[C@H]3O[C@@H](n4cnc5c(N)ncnc54)[C@H](O)[C@@H]3O)[C@@H](O)[C@H]2O)c1 [NAD^+],Ki,"6xHis-CBU0823; 3 mM malate, printed as NADH, but b28, Fig 6B and S3F show varied NAD+",6.30 (95% CI 0.27–12.33) mM
O=C(O)C[C@H](O)C(=O)O [malate],GC-MS detection of lactate and pyruvate,6xHis-oMLE [1],6xHis-oMLE could generate amounts of lactate and pyruvate significantly above baseline
same,Ki,6xHis-CBU0823; NAD+ 2.5 mM (Fig 6 legend: 5 mM),10.86 (95% CI -7.31–29.05) mM
O=C(O)CC(=O)C(=O)O [oxaloacetate],NADH oxidation at 340 nm,6xHis-oMLE [2],the observed reduction of OAA indicating MDH activity was not detected in the previous characterisation
same,Ki,GST-CBU1241,1.25 (95% CI -0.85–3.39) mM

# From PMC8362950 (PLoS ONE, 2021)
